{"source": "patent US20030022250A1", "about": "“Functional IgE test methods and compositions” (priority 2001, published 2003)", "system": "RBL SX-38 cells", "test": "[3H]5-HT release (degranulation) from labeled and sensitized RBL SX-38 cells", "assay_type": "cell-based, rat", "conditions": "pre-incubation 5 minutes at 37 C; 0.1 mM NECA, 30% D2O or 5 μg/ml cytochalasin B", "method": "As specifically exemplified herein, we have labeled RBL SX-38 cells with ^3H-serotonin (5HT). A fraction of the tritiated 5-HT incorporated into cellular granules is released from the cells (in the process of degranulation) following their activation. The percentage of labeled 5-HT release, where the label is a radioactive moiety, is calculated as follows: disintegrations per minute (dpm) in the supernatant divided by the sum of the dpm in the supernatant plus the dpm in the residual cells. This formula is as follows:\n% release =100×(dpm in the supematant)/(dpm in the supernatant+dpm in the residual cells).\nFor each experiment, a positive control, activation of the cells with anti-IgE is determined. The % release with anti-IgE (usually about 30-60% of the total 5-HT) is set at 100%. Degranulation with a given allergen is then expressed as a percent of that seen with anti-IgE. […]\nTriggering is initiated by adding 5 μl of allergenic extracts (diluted to the appropriate concentration) or goat anti-human-IgE (3 μg/ml). […] Non-specific background release is assessed using negative controls, which have 5 μl PIPES buffer added instead of extract or anti-IgE. After 45 minutes, the plates are then removed and the tritium content of a 50 μl aliquot from the supernatant of each sample, in 5 ml of scintillation fluid, is determined. […]", "data": [{"compound": "CCNC(=O)[C@H]1O[C@@H](n2cnc3c(N)ncnc32)[C@H](O)[C@@H]1O", "note": "[NECA, N-ethylcarboxamido adenosine]", "values": [{"measurement": "effect on threshold for triggering by allergen", "value": "lowers the threshold for triggering"}]}]}
